Test results published in patent publication US10815212B2, “Cytotoxin compounds and methods of isolation” (priority 2004, dated 2020).

Key:
[1] = Field-based feeding-deterrent assays
[2] = tested on: National Cancer Institute (NCI) 60 cell line panel
M14 = experiment: cells; conditions: Homo sapiens, M14, read-out: LC50
SK-MEL-5 = experiment: cells; conditions: Homo sapiens, SK-MEL-5, read-out: LC50
LOX IMVI = experiment: cells; conditions: Homo sapiens, read-out: LC50
HCC-2998 = experiment: cells; conditions: Homo sapiens, HCC 2998, read-out: LC50
RXF 393 = experiment: cells; conditions: Homo sapiens, RXF 393, read-out: LC50
[3] = tested on: National Cancer Institute (NCI) 60 cell line panel; experiment: cells; conditions: read-out: LC50

Q: For `CC(C)=CC(=O)N/C=C/C(C)=C/C(C)C1C/C(C)=C/C=C/CCC(OC(N)=O)C(O)/C=C/C(O)CCC/C=C/C(=O)O1` (stereo not shown) [Palmerolide A], which “bioactivity in field-based feeding-deterrent assays” value (“bioactivity” below) [1] is on record?
A: displayed bioactivity

Q: And the “cytotoxicity (in words)” value (UACC-62)?
A: displays cytotoxicity

Q: And the “selectivity index among tested cell lines” value ([2]; most sensitive cells relative to other cell lines tested)?
A: 10^3

Q: What about the CC50 (M14) of the same compound?
A: 0.076 µM

Q: What about the CC50 (SK-MEL-5) of the same compound?
A: 6.8 µM

Q: And the CC50 (LOX IMVI)?
A: 9.8 µM

Q: What about the CC50 (HCC-2998) of the same compound?
A: 6.5 µM

Q: And the CC50 (RXF 393)?
A: 6.5 µM

Q: And the CC50 [3]?
A: > 10 µM

Q: With `CC(C)=CC(=O)N/C=C/C(C)=C/C(C)C1C/C(C)=C/C=C/CCCC(OC(N)=O)C(O)C(O)/C=C/CC/C=C/C(=O)O1` (stereo not shown) [Palmerolide C] as the compound, how does the “bioactivity” value [1] read?
A: displayed bioactivity

Q: Which results are given for `C/C(C=O)=C\C(C)C1C/C(C)=C/C=C/CCC(OC(N)=O)C(O)/C=C/C(O)CCC/C=C/C(=O)O1` (stereo not shown) [Palmerolide E]?
A: bioactivity in field-based feeding-deterrent assays [1]: displayed bioactivity; activity/potency relative to palmerolide A (in words) ([2]; NCI 60 cell line bioassay): reduced activity

Q: For `C=C(C)C/C(C)=C\C(=O)N/C=C/C(C)=C/C(C)C1C/C(C)=C/C=C/CCC(OC(N)=O)C(O)/C=C/C(O)CCC/C=C/C(=O)O1` (stereo not shown) [Palmerolide D], which “bioactivity” value [1] is on record?
A: displayed bioactivity
